# Values of other authors in patent US9808427B2, “Swallowable N-acetylcysteine tablets” (ZAMBON S.P.A., priority 2013, dated 2017).
# Key:
# [1] = 1200 mg per day (2 tablets of 600 mg)
smiles,measurement,setting,value
"CC(=O)N[C@@H](CS)C(=O)O [NAC, N-acetylcysteine]",efficacy and safety in long-term treatment of COPD,[1],effective and safe
same,time to achieve pharmacologically active concentrations in pulmonary tissue and bronchial secretions,after taking the drug,approximately 3 hours
same,elimination of NAC and its metabolites,in vivo,essentially via the kidneys
same,absorption in the gastrointestinal tract,"oral administration, man",quickly and completely absorbed
